This is an account of results in US20160279187A1, “CALPAIN INHIBITORS FOR IBD AND COLORECTAL CANCER TREATMENT” (UNIVERSITY OF HAWAII, priority 2013, published 2016).

In assay [1] the test system is Akt phosphorylation / FAK cleavage in macrophages. Description: other m-calpain regulated pathways in macrophages (Akt, FAK). It counts as cell-based.
Assay [2] has as its system calpain activity in the colon tissue. Description: DSS dose-response, calpain activity in colon tissue. It counts as in vivo, mice. The settings on record: 2% DSS 4 days. Here is the method: (§1) Bone marrow derived macrophages (BMDM) were prepared as previously described by methods known to those skilled in the art. On day 5 of culture, 2×10^6 BMDM were seeded in 6-well plates and the following day were primed for 18 h with TNFα (20 ng/mL), followed by 1 h stimulation with E. faecalis (1 μg/mL; ATCC). Stimulation with E. faecalis was conducted in the presence of the zLLY-CH2F calpain-2 inhibitor (20 μg/mL) or DMSO as a control. Media was removed from treated BMDM, centrifuged at 300×g for 5 min and supernatent analyzed using the Cytometric Bead Array Mouse Inflammation Kit (BD Biosciences, San Jose, Calif.). Cytokine data were analyzed using Flowjo software (Ashland, Oreg.) and GraphPad Prism version 4.0 (GraphPad, La Jolla, Calif.). Cell pellets were lysed and analyzed for IκB and NFκB by Western blot as previously described (Miyazaki, T. et al. Journal of Atherosclerosis and Thrombosis 20, 228-237, 2013). […] Each day 4 wells were quantified using Celltiter MTS reagent (Promega) and the resulting signal was used to generate a proliferation curve. Calpain activity was measured using a Calpain activity assay kit (BioVision, Inc., Milpitas, Calif.) as previously described. Colons were harvested on day 4 and calpain activity measured. […]

The test system of assay [3] is HT-29 human colorectal cancer cells. Briefly: proliferation assay (MTS), HT-29. It is filed as cell-based. Particulars: HT-29, 20 μg/ml, vs DMSO. How it is done:
as §1

Assay [4] deals with Bone marrow derived macrophages (BMDM). Description: cytokine production by activated bone marrow derived macrophages (CBA). It counts as cell-based, mouse. The settings on record: 20 μg/ml; TNFα primed, E. faecalis activated BMDM. Here is the method: Bone marrow derived macrophages (BMDM) were prepared as previously described by methods known to those skilled in the art. On day 5 of culture, 2×10^6 BMDM were seeded in 6-well plates and the following day were primed for 18 h with TNFα (20 ng/mL), followed by 1 h stimulation with E. faecalis (1 μg/mL; ATCC). Stimulation with E. faecalis was conducted in the presence of the zLLY-CH2F calpain-2 inhibitor (20 μg/mL) or DMSO as a control. Media was removed from treated BMDM, centrifuged at 300×g for 5 min and supernatent analyzed using the Cytometric Bead Array Mouse Inflammation Kit (BD Biosciences, San Jose, Calif.). Cytokine data were analyzed using Flowjo software (Ashland, Oreg.) and GraphPad Prism version 4.0 (GraphPad, La Jolla, Calif.). Cell pellets were lysed and analyzed for IκB and NFκB by Western blot as previously described (Miyazaki, T. et al. Journal of Atherosclerosis and Thrombosis 20, 228-237, 2013). In other experiments, mouse CT-26.WT and human HT-29 colon cancer cells were plated in 96-well plates at 10^3 cells/well with 20 μg/mL inhibitor or DMSO, followed by analyses for IκB and NFκB by Western blot as described above for BMDM. For proliferation assays, fresh media with 20 μg/mL inhibitor or DMSO were added every 2 d. Each day 4 wells were quantified using Celltiter MTS reagent (Promega) and the resulting signal was used to generate a proliferation curve. Calpain activity was measured using a Calpain activity assay kit (BioVision, Inc., Milpitas, Calif.) as previously described. Colons were harvested on day 4 and calpain activity measured. Enzyme-linked immunosorbant assay (ELISA) analyses of cecum hemoglobin has been previously described (Miyazaki, T. et al. Journal of Atherosclerosis and Thrombosis 20, 228-237, 2013).
(§2) To determine if a similar mechanism may be contributing to the effect of the calpain-2 inhibition in the DSS model of colitis, macrophages were analyzed for NFκB activation and inflammatory cytokine secretion. Bone marrow derived macrophages were primed […] with TNFα (20 ng/ml) and activated with E. faecalis (1 μg/ml) for 1 h in the presence or absence of calpain-2 inhibitor (20 μg/ml). Supernatants were evaluated for a panel of cytokines including IFNγ, TNFα, IL-6, and MCP-1, IL-10, and IL-12. Real-time PCR was performed on total RNA extracted from colon tissues to access levels of cytokines. Media was collected from wells and cytokines assessed by CBA kit (BD Biosciences). For IκB blotting cells were lysed and SDS-PAGE was performed. Membranes were stained with anti-IκB (Cell Signalling) and anti-βactin (Santa Cruz). For NfκB blotting an NFκB Activation Kit (Five Photon) was used to isolate nuclear fractions. These fractions were transferred using SDS-PAGE. The membranes were stained with anti-NFκB (Santa Cruz) or anti-TATA (Abcam). Data are mean±SE (n=3) and represent results from three independent experiments. *p<0.05; one way ANOVA followed by Tukey post-test. […] Importantly, those cytokines most affected by the calpain-2 are regulated by NFκB.

Assay [5] deals with CT-26 WT mouse colon cancer cells. Briefly: proliferation assay (MTS), CT-26.WT. It is filed as cell-based. The settings on record: 20 μg/ml, vs DMSO. Here is the method:
as §1

The subject of assay [6] is cytokine mRNAs in colon tissues. Briefly: AOM/DSS model, colon cytokine mRNA by real-time PCR. The settings on record: day 63, vs vehicle control. It is filed as in vivo, mice. Here is the method:
Mice subjected to the AOM/DSS model were sacrificed on day 63 and colons removed and assessed by histology and cytokine mRNA analyses. […] To further assess inflammation, mouse colon tissues were harvested at the end of the chronic colitis model and mRNA levels for different cytokines measured by real-time PCR.
as §2
(In qPCR the cycle at which signal appears reflects the starting amount.)

Molecules are shown by their SMILES. Where a SMILES comes first, the peptide text is derived from it. The star is where a group is joined. Cbz = O=C(OCc1ccccc1)*; CH2F = FC*

Consider `CC(C)C[C@H](NC(=O)OCc1ccccc1)C(=O)N[C@@H](CC(C)C)C(=O)N[C@@H](Cc1ccc(O)cc1)C(=O)CF` [zLLY-CH2F, Z-LLY-CH2F] (Cbz-Leu-Leu-Tyr-CH2F), for which, in assay [1], the FAK cleavage result is “major effect” and the “phosphorylation of Akt” value is listed as “inhibited”. Further, the “total calpain activity reduced by” value in assay [2] (daily i.p. injection, 0.75 mg/kg) is recorded as 50%. Further, in assay [2] (i.p., 0-1.25 mg/kg tested), the “dose at which the maximum amount of calpain activity inhibition was achieved” value worked out at 0.75 mg/kg. Also, the proliferation result in assay [3] is reported as “reduction”. In assay [4], the “production of IFNγ” value is recorded as “significant decrease”, the “production of IL-6” value is listed as “significant decrease”, the “production of IL-10” value was “not significantly affected” and the “production of IL-12” value is “not significantly affected”. For the same compound, in assay [4], the “production of MCP-1” value is recorded as “significant decrease” and the “production of TNFα” value is “significant decrease”. Further, in assay [5], the proliferation result is “reduction”. In addition, in assay [6], the “IFNγ mRNA level in colon” value was “not significantly different”, the “IL-6 mRNA level in colon” value is “lowered”, the “MCP-1 mRNA level in colon” value is recorded as “lowered” and the “TNFα mRNA level in colon” value was “lowered”.
